Consider two molecules from ChEMBL document CHEMBL5465560, “Selectivity Literature for EUbOPEN Chemogenomic Library” (2024).

The target in test [1] is 5-hydroxytryptamine receptor 3A (Homo sapiens, UniProt P46098). The experiment in a line: Selectivity interaction (BET inhibitor selectivity panel (Human antagonist intracellular Ca2+ fluorescence assay)) EUB0000102c HTR3A. The format is cell-based.
Test [2] concerns the target Potassium voltage-gated channel subfamily E member 1 (Homo sapiens, UniProt P15382). The experiment in a line: Selectivity interaction (BET inhibitor selectivity panel (Human Blocker ionworks assay)) EUB0000102c KCNE1. Background: In patch-clamp work, channel activity is measured electrically.
Test [3] deals with Voltage-gated inwardly rectifying potassium channel KCNH3 (Homo sapiens, UniProt Q9ULD8). The experiment in a line: Selectivity interaction (BET inhibitor selectivity panel (Human FP binding assay)) EUB0000102c KCNH3.
Test [4] addresses Substance-K receptor (Homo sapiens) (UniProt P21452). The experiment in a line: Selectivity interaction (CEREP panel (GPCRs, ion channels, and transporters)) EUB0000102c TACR2. As to conditions: at 10 µM.
Another test has as its target CREB-binding protein (Homo sapiens, UniProt Q92793). The experiment in a line: Selectivity interaction (Bromodomain panel (DSF assays, literature)) EUB0000102c CREBBP. A general note: Differential scanning fluorimetry follows unfolding on heating by fluorescence.
The target of test [5] is Voltage-dependent P/Q-type calcium channel subunit alpha-1A (Homo sapiens, UniProt O00555). The experiment in a line: Selectivity interaction (BET inhibitor selectivity panel (Human blocker intracellular Ca2+ fluorescence assay)) EUB0000102c CACNA1A. The format is cell-based.
Chain of Voltage-dependent P/Q-type calcium channel subunit alpha-1A (O00555 whole entry): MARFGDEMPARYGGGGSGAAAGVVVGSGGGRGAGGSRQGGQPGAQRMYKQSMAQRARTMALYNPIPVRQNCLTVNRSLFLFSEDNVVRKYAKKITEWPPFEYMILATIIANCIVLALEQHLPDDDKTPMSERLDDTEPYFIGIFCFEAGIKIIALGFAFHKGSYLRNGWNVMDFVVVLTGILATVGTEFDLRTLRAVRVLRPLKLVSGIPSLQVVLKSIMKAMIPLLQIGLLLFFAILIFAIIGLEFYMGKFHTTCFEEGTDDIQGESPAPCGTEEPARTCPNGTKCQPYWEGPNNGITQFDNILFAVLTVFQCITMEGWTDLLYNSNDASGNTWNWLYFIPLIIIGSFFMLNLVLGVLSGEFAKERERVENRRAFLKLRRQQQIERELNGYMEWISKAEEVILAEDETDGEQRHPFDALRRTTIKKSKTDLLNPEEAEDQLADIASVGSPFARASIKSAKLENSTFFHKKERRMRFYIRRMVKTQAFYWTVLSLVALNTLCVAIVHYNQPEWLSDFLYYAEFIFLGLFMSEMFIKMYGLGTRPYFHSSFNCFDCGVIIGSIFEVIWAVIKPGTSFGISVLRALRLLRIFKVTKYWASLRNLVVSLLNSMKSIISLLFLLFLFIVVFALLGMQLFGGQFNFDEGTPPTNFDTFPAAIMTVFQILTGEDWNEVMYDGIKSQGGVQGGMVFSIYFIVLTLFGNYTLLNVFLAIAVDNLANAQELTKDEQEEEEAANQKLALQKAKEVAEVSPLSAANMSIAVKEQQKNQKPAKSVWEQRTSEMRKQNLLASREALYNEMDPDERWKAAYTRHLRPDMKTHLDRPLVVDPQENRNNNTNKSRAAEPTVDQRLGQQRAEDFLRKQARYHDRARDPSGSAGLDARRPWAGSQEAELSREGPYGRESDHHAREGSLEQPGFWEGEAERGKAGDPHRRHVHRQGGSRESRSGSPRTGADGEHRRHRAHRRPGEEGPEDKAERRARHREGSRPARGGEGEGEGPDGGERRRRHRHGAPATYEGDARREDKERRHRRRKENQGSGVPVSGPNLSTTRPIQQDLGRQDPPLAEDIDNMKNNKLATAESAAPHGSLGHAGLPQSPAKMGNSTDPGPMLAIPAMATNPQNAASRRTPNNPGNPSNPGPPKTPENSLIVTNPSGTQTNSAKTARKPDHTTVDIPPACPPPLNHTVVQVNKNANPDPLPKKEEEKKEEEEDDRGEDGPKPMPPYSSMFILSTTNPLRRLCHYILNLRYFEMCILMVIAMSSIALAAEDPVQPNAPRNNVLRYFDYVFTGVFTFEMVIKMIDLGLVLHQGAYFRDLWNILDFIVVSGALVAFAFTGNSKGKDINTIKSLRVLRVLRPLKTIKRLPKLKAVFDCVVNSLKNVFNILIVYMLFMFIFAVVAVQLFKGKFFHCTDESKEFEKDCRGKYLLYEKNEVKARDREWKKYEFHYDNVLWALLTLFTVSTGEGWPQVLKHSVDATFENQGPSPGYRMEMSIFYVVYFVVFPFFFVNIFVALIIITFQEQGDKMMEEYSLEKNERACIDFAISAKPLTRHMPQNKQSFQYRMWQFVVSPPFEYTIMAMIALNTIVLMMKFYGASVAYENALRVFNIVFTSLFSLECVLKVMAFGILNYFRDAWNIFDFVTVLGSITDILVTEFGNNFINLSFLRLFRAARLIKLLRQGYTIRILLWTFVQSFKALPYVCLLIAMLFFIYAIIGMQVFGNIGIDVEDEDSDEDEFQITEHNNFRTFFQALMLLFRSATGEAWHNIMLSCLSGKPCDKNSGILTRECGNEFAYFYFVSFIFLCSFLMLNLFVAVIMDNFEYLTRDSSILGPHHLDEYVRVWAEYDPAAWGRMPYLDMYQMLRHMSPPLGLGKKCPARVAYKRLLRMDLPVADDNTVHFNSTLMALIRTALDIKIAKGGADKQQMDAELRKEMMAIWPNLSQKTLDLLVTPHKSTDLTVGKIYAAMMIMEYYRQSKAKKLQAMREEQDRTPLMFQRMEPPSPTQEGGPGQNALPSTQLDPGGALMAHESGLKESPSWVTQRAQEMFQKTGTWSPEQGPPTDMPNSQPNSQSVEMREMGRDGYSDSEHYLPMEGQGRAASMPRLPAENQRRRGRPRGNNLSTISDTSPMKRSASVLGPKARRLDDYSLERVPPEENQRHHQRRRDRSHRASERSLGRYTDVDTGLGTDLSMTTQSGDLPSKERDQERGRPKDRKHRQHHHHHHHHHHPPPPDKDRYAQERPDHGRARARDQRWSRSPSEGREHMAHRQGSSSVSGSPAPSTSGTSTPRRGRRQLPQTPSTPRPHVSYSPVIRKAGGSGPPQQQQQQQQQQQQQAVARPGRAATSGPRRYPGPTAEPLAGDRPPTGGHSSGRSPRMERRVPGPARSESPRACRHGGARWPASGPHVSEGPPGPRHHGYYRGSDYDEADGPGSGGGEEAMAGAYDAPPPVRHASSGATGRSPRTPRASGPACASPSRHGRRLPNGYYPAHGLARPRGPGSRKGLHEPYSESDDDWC
The target of test [6] is Potassium voltage-gated channel subfamily KQT member 1 (Homo sapiens, UniProt P51787). The experiment in a line: Selectivity interaction (BET inhibitor selectivity panel (Human Blocker ionworks assay)) EUB0000102c KCNQ1.
Test [7] concerns the target 5-hydroxytryptamine receptor 1A (Homo sapiens, UniProt P08908). The experiment in a line: Selectivity interaction (BET inhibitor selectivity panel (Human SPA binding assay)) EUB0000102c HTR1A.
Test [8] has as its target Sodium-dependent noradrenaline transporter (Homo sapiens, UniProt P23975). The experiment in a line: Selectivity interaction (BET inhibitor selectivity panel (Human SPA binding assay)) EUB0000102c SLC6A2.
Test [9] has as its target Microtubule-associated serine/threonine-protein kinase 1 (Homo sapiens) (UniProt Q9Y2H9). The experiment in a line: Selectivity interaction (KinomeScan (DiscoverX)) EUB0001877a MAST1. As to conditions: at 1 µM.

Chain of Microtubule-associated serine/threonine-protein kinase 1 (Homo sapiens) (Q9Y2H9 whole entry, looked up): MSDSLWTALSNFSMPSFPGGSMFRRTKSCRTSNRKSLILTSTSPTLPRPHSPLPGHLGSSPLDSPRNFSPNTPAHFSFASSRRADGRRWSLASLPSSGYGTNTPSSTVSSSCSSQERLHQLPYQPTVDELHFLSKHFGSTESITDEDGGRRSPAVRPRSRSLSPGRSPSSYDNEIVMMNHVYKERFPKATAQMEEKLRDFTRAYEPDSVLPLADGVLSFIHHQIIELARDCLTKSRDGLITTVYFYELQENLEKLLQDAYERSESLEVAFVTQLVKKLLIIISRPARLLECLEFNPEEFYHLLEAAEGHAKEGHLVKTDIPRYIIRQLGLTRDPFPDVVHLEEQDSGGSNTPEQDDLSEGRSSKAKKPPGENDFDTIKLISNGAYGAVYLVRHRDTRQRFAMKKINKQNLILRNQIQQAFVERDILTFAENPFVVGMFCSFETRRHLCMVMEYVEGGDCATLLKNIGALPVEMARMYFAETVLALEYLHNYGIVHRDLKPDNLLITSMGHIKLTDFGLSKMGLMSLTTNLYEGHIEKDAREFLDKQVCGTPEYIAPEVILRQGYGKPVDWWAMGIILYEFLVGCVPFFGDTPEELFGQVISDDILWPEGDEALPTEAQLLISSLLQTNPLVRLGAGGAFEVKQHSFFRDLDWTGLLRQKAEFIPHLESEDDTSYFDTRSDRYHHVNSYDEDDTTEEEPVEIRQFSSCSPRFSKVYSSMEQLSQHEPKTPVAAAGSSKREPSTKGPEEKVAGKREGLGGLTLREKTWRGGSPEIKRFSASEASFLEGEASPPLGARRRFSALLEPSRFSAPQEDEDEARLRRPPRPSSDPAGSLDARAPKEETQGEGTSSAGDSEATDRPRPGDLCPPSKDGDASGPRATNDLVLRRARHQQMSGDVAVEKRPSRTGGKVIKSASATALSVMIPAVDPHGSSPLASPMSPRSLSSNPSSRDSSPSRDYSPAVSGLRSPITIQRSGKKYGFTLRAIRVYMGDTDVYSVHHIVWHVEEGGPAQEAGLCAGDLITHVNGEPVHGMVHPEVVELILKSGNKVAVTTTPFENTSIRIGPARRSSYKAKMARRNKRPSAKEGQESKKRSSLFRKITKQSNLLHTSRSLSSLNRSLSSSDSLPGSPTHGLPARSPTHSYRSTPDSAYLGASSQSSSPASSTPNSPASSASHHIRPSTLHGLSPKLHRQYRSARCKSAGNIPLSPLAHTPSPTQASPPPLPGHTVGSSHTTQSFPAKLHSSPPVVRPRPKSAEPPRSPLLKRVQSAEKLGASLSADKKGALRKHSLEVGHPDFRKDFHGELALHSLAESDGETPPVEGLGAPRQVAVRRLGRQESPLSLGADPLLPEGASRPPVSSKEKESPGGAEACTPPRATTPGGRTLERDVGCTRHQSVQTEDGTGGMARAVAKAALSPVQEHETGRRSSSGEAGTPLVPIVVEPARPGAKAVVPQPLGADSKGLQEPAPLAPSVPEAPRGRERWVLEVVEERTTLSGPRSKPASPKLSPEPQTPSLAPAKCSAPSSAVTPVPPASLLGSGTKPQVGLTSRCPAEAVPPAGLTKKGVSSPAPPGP
Chain of 5-hydroxytryptamine receptor 1A (P08908 whole entry): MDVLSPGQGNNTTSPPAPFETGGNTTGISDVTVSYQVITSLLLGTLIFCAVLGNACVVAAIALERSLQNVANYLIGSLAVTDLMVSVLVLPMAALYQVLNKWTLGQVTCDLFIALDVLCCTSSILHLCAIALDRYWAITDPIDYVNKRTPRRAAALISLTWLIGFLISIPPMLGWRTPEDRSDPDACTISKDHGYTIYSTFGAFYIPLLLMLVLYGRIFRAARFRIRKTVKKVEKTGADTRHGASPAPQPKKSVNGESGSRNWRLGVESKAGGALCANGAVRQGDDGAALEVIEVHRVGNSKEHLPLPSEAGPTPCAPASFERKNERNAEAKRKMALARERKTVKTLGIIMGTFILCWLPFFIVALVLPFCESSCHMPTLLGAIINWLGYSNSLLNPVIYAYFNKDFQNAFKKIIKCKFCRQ
Chain of Substance-K receptor (Homo sapiens) (P21452 whole entry): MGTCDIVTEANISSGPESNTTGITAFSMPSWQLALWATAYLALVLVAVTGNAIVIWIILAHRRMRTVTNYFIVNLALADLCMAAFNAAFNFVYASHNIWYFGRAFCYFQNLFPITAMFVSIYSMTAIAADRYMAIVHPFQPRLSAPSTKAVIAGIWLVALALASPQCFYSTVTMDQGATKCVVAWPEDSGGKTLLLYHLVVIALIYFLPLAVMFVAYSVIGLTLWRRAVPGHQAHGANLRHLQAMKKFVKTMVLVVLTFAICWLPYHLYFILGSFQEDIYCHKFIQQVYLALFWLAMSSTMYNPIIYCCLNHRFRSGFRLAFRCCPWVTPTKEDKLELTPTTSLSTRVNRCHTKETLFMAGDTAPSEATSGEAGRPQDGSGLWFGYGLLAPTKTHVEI

By IC50 is commonly meant the concentration that gives 50% inhibition. For `COc1cc2c(cc1-c1c(C)noc1C)ncc1[nH]c(=O)n([C@H](C)c3ccccn3)c12`, the IC50 in test [1] was more than 50 µM; in test [2], more than 25 µM; in test [3] it was 40 µM; in [5], 1.26 µM; in test [6] it was more than 25 µM; in [7], more than 100 µM. For the same molecule, the half-inhibitory concentration (IC50) in test [8] was more than 100 µM. Further, the % of inhibition in test [4] is 48%. The molecule also yielded a dTM at CREB-binding protein of less than 3 K.

Turning to `Nc1ncc2c(n1)-c1c([nH]c3ccc(C4CC4)cc13)CCCC2`, in test [9], the % of control came out at 32%.
